Laboratory results taken from patent US20260159500A1, “KINESIN KIF18A INHIBITOR AND USE THEREOF” (SHANGHAI APEIRON THERAPEUTICS COMPANY LIMITED, priority 2022, published 2026).
pIC50: −log10 of the molar value.

Tests used:
[1] = target: T1, Human KIF18A (amino acid sequence 1-417) (Homo sapiens, UniProt Q8NI77); test: Enzymatic activity test (ADP-Glo, microtubule-stimulated KIF18A ATPase); format: biochemical; settings: 60 μg/mL microtubules, 25 μM ATP, 2.5 nM KIF18A protein, 120 min at ambient temperature, read-out: KIF18A_nM
T1 construct: purchased Viva Biotech (Shanghai) Ltd
T1 sequence (Q8NI77 1-417): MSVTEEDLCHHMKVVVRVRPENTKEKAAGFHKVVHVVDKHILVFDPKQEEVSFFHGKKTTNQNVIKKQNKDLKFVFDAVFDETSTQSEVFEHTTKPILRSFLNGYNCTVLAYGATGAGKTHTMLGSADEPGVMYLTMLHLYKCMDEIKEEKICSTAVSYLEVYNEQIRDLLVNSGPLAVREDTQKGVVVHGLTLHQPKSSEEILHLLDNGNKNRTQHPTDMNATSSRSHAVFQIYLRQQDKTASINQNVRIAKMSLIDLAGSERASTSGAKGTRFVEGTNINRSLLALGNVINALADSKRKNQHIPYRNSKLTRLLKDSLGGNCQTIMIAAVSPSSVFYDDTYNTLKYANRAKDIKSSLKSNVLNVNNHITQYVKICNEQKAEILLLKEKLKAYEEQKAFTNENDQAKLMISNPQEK
Description: Human KIF18A (amino acid sequence 1-417) was purchased from Viva Biotech (Shanghai) Ltd.; the ADP-Glo™ protein kinase kit was acquired from Promega, USA; tubulin was sourced from Cytoskeleton, USA; and the 384-well assay plate and Envision multifunctional microplate reader were obtained from PerkinElmer, USA.
Dissolve the compound powder in DMSO to prepare a stock solution of 10 mM. Then perform gradient dilution for the compounds in the microplate to achieve a final concentration of 0-10 μM. Then, add 2.5 μL each of tubulin, compound, ATP, and KIF18A protein to the microplate in sequence for reaction at ambient temperature for 120 min. The final concentrations in the enzyme reaction are 60 μg/mL for microtubules, 25 μM for ATP, and 2.5 nM for KIF18A protein. After the enzyme reaction, add 10 μL of ADP-GLO reaction reagent to each well and incubate at ambient temperature for 30 min. After that, add 20 μL of detection reagent to each well and incubate at ambient temperature for 30 min in the dark. Finally, perform chemiluminescence detection using the PerkinElmer Envision.

OVCAR3 cells = test: Cell proliferation activity test in OVCAR3 cells (CyQUANT Direct); format: cell-based; settings: Homo sapiens, OVCAR-3, 72 h, 3 days incubation, CyQUANT fluorescence detection, read-out: OVCAR-3_IC50_nM
Description: OVCAR3 cells were purchased from Nanjing Cobioer Biosciences Co., Ltd. RPMI-1640 medium, fetal bovine serum, and the CyQUANT Direct Cell Proliferation Assay kit were purchased from Thermo Fisher Scientific, USA; 96-well cell culture plates were sourced from Corning, USA.
Culture OVCAR3 cells with RPMI-1640 medium containing 10% fetal bovine serum and incubate them in a 5% CO2 incubator at 37° C. Only cells in the logarithmic growth phase can be used for the test.
Inoculate OVCAR3 cells into a 96-well cell culture plate at 90 μL per well and incubate overnight in a 5% CO2 incubator at 37° C. Dissolve the compound powder in DMSO to prepare a stock solution of 10 mM. Then perform gradient dilution for the compounds in the microplate to achieve a final concentration of 0-10 μM. Add 10 μL of cell culture medium containing compounds to each well to make the final DMSO content 0.2%. Incubate the cell plates in a 5% CO2 incubator at 37° C. for 3 days. Add 100 μL of CyQUANT detection reagent to each well, react at 37° C. for 60 min, and perform fluorescence detection using the PerkinElmer Envision.

HT29 cells = test: CyQuant cell proliferation activity test in HT29 cells; format: cell-based; settings: Homo sapiens, HT-29, 72 h, 2000 cells per well, 3 days incubation, IC50 by XLFIT, read-out: HT29_IC50_nM
Description: HT29 cells were purchased from Nanjing Cobioer Biosciences Co., Ltd.; RPMI-1640 medium, fetal bovine serum, Trypsin-EDTA (0.25%), 96-well plates, and CyQuant reagents were purchased from ThermoFisher (USA); DMSO was purchased from SIGMA (USA).
Culture HT29 cells with RPMI-1640 containing 10% fetal bovine serum under the condition of 37° C. and 5% CO2. Only cells in the logarithmic growth phase can be used for the test.
Use the CyQuant reagent to detect the proliferation inhibitory activity of compounds on HT29 cells. Adjust the cell density and inoculate 100 μL per well into the 96-well plate (HT29 at 2000 cells per well), then incubate overnight under the condition of 37° C. and 5% CO2. Add compounds of various target concentrations (initial concentration of 3000 nM, 3-fold dilution, 9 concentration gradients), and make the DMSO content 0.2%. Incubate the cell plates at 37° C. and 5% CO2 for 3 days. Incubate with CyQuant reagent for 1 h, read the plate by Envision, and calculate IC50 using XLFIT.

pIC50 [1] | pIC50 (OVCAR3 cells) | pIC50 (HT29 cells) | SMILES
7.15 | 8.10 | 8.05 | O=C(Nc1cc2occc2c(N2CCC(F)(F)CC2)n1)c1ccc(NS(=O)(=O)CCO)cc1N1CCC2(CC1)CC2 [Example 31, N-(4-(4,4-difluoropiperidin-1-yl)furo[3,2-c]pyridin-6-yl)-4-(2-hydroxyethylsulfonamido)-2-(6-azaspiro[2.5]octan-6-yl)benzamide]
7.47 | 7.92 | 7.89 | O=C(Nc1cc2ccncc2c(N2CCC(F)(F)CC2)n1)c1ccc(NS(=O)(=O)CCO)cc1N1CCC2(CC1)CC2 [Example 56]
7.00 | < 5.00 | < 5.00 | O=C(Nc1nc2c(c(N3CCC(F)(F)CC3)n1)CNC2)c1ccc(NS(=O)(=O)CCO)cc1N1CCC2(CC1)CC2 [Example 7, N-(4-(4,4-difluoropiperidin-1-yl)-6,7-dihydro-5H-pyrrolo[3,4-d]pyrimidin-2-yl)-4-(2-hydroxyethylsulfonamido)-2-(6-azaspiro[2.5]octan-6-yl)benzamide]
7.41 | 7.92 | 7.85 | O=C(Nc1cc2cccnc2c(N2CCC(F)(F)CC2)n1)c1c(F)cc(NS(=O)(=O)CCO)cc1N1CCC2(CC1)CC2 [Example 46, N-(8-(4,4-difluoropiperidin-1-yl)-1,7-naphthyridin-6-yl)-2-fluoro-4-((2-hydroxyethyl)sulfonamido)-6-(6-azaspiro[2.5]octan-6-yl)benzamide]
8.00 | < 5.52 | < 5.52 | O=C(O)c1cnc2c(N3CCC(F)(F)CC3)cc(NC(=O)c3ccc(NS(=O)(=O)CCO)cc3N3CCC4(CC3)CC4)cc2c1 [Example 87, 6-(2-{6-azaspiro[2.5]octan-6-yl}-4-(2-hydroxyethanesulfonamido)benzoylamino)-8-(4,4-difluoropiperidin-1-yl)quinoline-3-carboxylic acid]
7.49 | 7.92 | 8.00 | O=C(Nc1cc(N2CCC(F)(F)CC2)c2nsnc2c1)c1ccc(NS(=O)(=O)CCO)cc1N1CCC2(CC1)CC2 [Example 40, 2-(6-Azaspiro[2.5]oct-6-yl)-4-(2-hydroxyethylsulfonyl)aminophenyl)-N-[4-(4,4-difluoropiperidinyl)benzo[3,4-c]1,2,5-thiadiazole-5-ylcarboxamide]
6.51 | 6.92 | 7.00 | N#Cc1ccc2cc(NC(=O)c3ccc(NS(=O)(=O)CCO)cc3N3CCC4(CC3)CC4)cc(N3CCC(F)(F)CC3)c2n1 [Example 68, N-(2-cyano-8-(4,4-difluoropiperidin-1-yl)quinolin-6-yl)-4-((2-hydroxyethyl)sulfon amido)-2-(6-azaspiro[2.5]oct-6-yl)benzamide]
6.60 | 6.95 | 7.05 | O=C(Nc1cc2ccccc2c(N2CCC(F)(F)CC2)n1)c1ccc(NS(=O)(=O)CCO)cc1N1CCC2(CC1)CC2 [Example 55]
7.62 | 7.96 | 7.92 | O=C(Nc1ccc(NS(=O)(=O)CCO)cc1N1CCC2(CC1)CC2)c1cc(N2CCC(F)(F)CC2)c2ncccc2c1 [Example 100, N-(2-{6-azaspiro[2.5]octan-6-yl}-4-(2-hydroxyethanesulfonamido)phenyl)-8-(4,4-difluoropiperidin-1-yl)quinoline-6-carboxamide]
6.47 | 7.02 | 6.97 | Cc1cnc2c(N3CCC(F)(F)CC3)c(F)c(NC(=O)c3ccc(NS(=O)(=O)CCO)cc3N3CCC4(CC3)CC4)cc2c1 [Example 90, 2-{6-azaspiro[2.5]octan-6-yl}-N-[8-(4,4-difluoropiperidin-1-yl)-7-fluoro-3-methylquinolin-6-yl]-4-(2-hydroxyethanesulfonamido)benzamide]
8.30 | 7.34 | 7.08 | O=C(Nc1cc2ncnn2c(N2CCC(F)(F)CC2)n1)c1cc(F)c(NS(=O)(=O)CCO)cc1N1CCC2(CC1)CC2 [Example 25, (2-(6-azaspiro[2.5]oct-6-yl)-5-fluoro-4-{[(2-hydroxyethyl)sulphonyl]amino}phenyl)-N-[5-(4,4-difluoropiperidinyl)(4-hydro-1,2,4-triazolo[4,3-e]pyrimidin-7-yl)]formamide]
7.28 | 8.15 | 7.89 | Nc1ccc2cc(NC(=O)c3ccc(NS(=O)(=O)CCO)cc3N3CCC4(CC3)CC4)cc(N3CCC(F)(F)CC3)c2n1 [Example 67]
8.10 | 6.46 | 6.03 | O=C(Nc1nc(N2CCC(F)(F)CC2)c2occc2n1)c1ccc(NS(=O)(=O)CCO)cc1N1CCC2(CC1)CC2 [Example 32, N-(4-(4,4-difluoropiperidin-1-yl)furo[3,2-d]pyrimidin-2-yl)-4-((2-hydroxyethyl)sulfanilamide)-2-(6-azaspiro[2.5]octan-6-yl)benzamide]
7.39 | 6.81 | 6.37 | NC(=O)c1cnc2c(N3CCC(F)(F)CC3)cc(NC(=O)c3ccc(NS(=O)(=O)CCO)cc3N3CCC4(CC3)CC4)cc2c1 [Example 88, 6-(2-{6-azaspiro[2.5]octan-6-yl}-4-(2-hydroxyethanesulfonamido)benzoylamino)-8-(4,4-difluoropiperidin-1-yl)quinoline-3-carboxamide]
< 5.52 | 5.99 | 5.85 | O=C(Nc1cc2cccnc2c(N2CCC(F)(F)CC2)c1Cl)c1ccc(NS(=O)(=O)CCO)cc1N1CCC2(CC1)CC2 [Example 73, N-(7-chloro-8-(4,4-difluoropiperidin-1-yl)quinolin-6-yl)-4-((2-hydroxyethyl)sulfonamido)-2-(6-azaspiro[2.5]oct-6-yl)benzamide]
7.57 | 8.05 | 7.89 | O=C(Nc1cn2ccnc2c(N2CCC(F)(F)CC2)n1)c1ccc(NS(=O)(=O)CCO)cc1N1CCC2(CC1)CC2 [Example 13, N-(8-(4,4-difluoropiperidin-1-yl)imidazolo[1,2-a]pyrazin-6-yl)-4-((2-hydroxyethyl)sulfonamide)-2-(6-azaspiro[2.5]octan-6-yl)benzamide]
7.40 | 7.96 | 7.60 | Nc1ncc2cc(NC(=O)c3ccc(NS(=O)(=O)CCO)cc3N3CCC4(CC3)CC4)cc(N3CCC(F)(F)CC3)c2n1 [Example 84, N-(2-amino-8-(4,4-difluoropiperidin-1-yl)quinazolin-6-yl)-4-((2-hydroxyethyl)sulfonamido)-2-(6-azaspiro[2.5]oct-6-yl)benzamide]
– | 7.74 | 7.64 | O=C(Nc1cc2cccn2c(N2CCC(F)(F)CC2)n1)c1ccc(NS(=O)(=O)CCO)cc1N1CCC2(CC1)CC2 [Example 20, N-(1-(4,4-difluoropiperidin-1-yl)pyrrolo[1,2-c]pyrimidin-3-yl)-4-(2-hydroxyethylsulfonamido)-2-(6-azaspiro[2.5]octan-6-yl)benzamide]

SMILES | pIC50 [1] | pIC50 (OVCAR3 cells) | pIC50 (HT29 cells)
Cc1nc2c(N3CCC(F)(F)CC3)nc(NC(=O)c3ccc(NS(=O)(=O)CCO)cc3N3CCC4(CC3)CC4)cn2c1C [Example 15] | 6.69 | 7.15 | 7.01
